According to US20250281629A1, “COMPOSITIONS AND METHODS FOR ANTI-PHOSPHOCHOLINE ACTIVE IMMUNOTHERAPY” (Duke University, priority 2022, published 2025):
Where no end group is shown, it is not given here.

What was measured:
C57BL/6 mice = experiment: Serum anti-PC antibody responses of immunized mice via ELISA (PC-BSA coated); type: in vivo, mouse; settings: 10% Cys4-Q11 added to PC-Q11 or PCM-Q11 nanofibers; i.p.
Method: Mice and Immunizations. Female C57BL/6 mice (Envigo) age 6-10 weeks were used to initiate experiments except for the Il10^−/− colitis study where female B6.129P2-Il10^tm1Cgn/J (The Jackson Laboratory) mice age 5-7 weeks were used. While female mice were used for most experiments, age-matched male C57BL/6 mice (Envigo) were used in a one cycle acute DSS colitis model to confirm efficacy across sexes. Mice were housed at Duke University. All experimental procedures were performed on protocols (A264-18-11 and A199-21-09) approved by the Duke University Institutional Animal Care and Use Committee (IACUC). For subcutaneous immunizations, anesthetized mice were injected once behind each shoulder with 50 μL of 2 mM peptide nanofiber solution or 1×PBS. For intraperitoneal immunizations, mice were injected with 100 μL of 2 mM peptide nanofiber solution or 1×PBS. Nanofiber immunizations with adjuvant contained 10 μg CpG (ODN 1826, IAX-200-002-3001, Innaxon). For injections of only CpG, 10 μg of CpG in 100 μL 1×PBS was used. Mice were typically given three immunizations, with the specific boosting schedules stated in each figure caption, usually at weeks 0, 2, and 4, as this was determined to produce robust antibody responses in a short time frame.
Detection of Anti-PC Antibody Responses via ELISA. Anti-PC antibody responses in serum collected from the submandibular vein in mice were measured using ELISA. Briefly, plates were coated with 20 μg/mL PC-BSA (Biosearch Technologies, PC-1011-10) in 1×PBS or just 1×PBS at 4° C. overnight. The next day, the plates were washed using 1×PBST (1×PBS with 0.05% Tween 20) and then blocked three times with Superblock blocking buffer solution (Thermo Fisher, 37515). Serum diluted from 1:10^2 to 1:10^5 in 1% BSA in 1×PBST was the added to the plate and allowed to incubate for 2 h at room temperature. Anti-PC IgG was detected using HRP-conjugated Fcγ fragment-specific goat anti-mouse IgG (Jackson Immuno Research, 15-035-071). IgG subclasses and IgM anti-PC antibodies were detected using Southern Biotech HRP-conjugated goat anti-mouse antibodies (IgG1, IgG2b, IgG2c, IgG3, & IgM: 5300-05B). Area under the curve (AUC) measurements were calculated using background-subtracted absorbance values at dilutions from 1:10^2 to 1:10^5. Antibody titers were defined using an absorbance cutoff above background of 0.2 OD, where titer 2 represents an OD value greater than 0.2 at 1:10^2 dilution and so on up to titer 5 at 1:10^5 dilution.

[1] = Zeta potential of nanofibers; type: physicochemical; settings: 1 mM conjugate coassembled with 1 mM Q11; 0.2 mM in 1×PBS, 25° C.
Method: Zeta Potential. Nanofibers were diluted to 0.2 mM in 1×PBS and zeta potential measurements were conducted at 25° C. using an Anton Paar Litesizer 500.

[2] = test system: mouse anti-PC IgM monoclonal antibody (Clone: BH8); experiment: ELISA for measuring nanofiber epitope reactivity; type: binding; settings: nanofibers coated at 0.2 mM; PC-BSA positive control
Method: ELISA for Measuring Nanofiber Epitope Reactivity. The reactivity of PC conjugation methods was determined via binding of a mouse anti-PC IgM monoclonal antibody (Clone: BH8) (Sigma, MABF2084) to nanofibers. Nanofibers were diluted to 0.2 mM and coated onto 96-well plates at 4° C. overnight. PC-BSA (Biosearch Technologies, PC-1011-10) was coated at 20 μg/mL in 1×PBS overnight as a positive control, and PBS was used as a negative control. The next day, the plates were washed using 1×PBS with 0.05% Tween 20 (1×PBST) and then blocked with Superblock blocking buffer solution (Thermo Fisher, 37515) three times. This was followed by the addition anti-PC IgM which was serially diluted in 1% BSA in 1×PBST by 5-fold steps beginning from 1:100 (5 μg/mL) and allowed to incubate for 2 h at room temperature. Anti-PC IgM bound to nanofibers was then detected with HRP-conjugated goat anti-mouse IgM (Southern Biotech, 1021-05) and the absorbance values at 450 nm were measured.

B1a cells (CD19+CD5+) = experiment: Nanofiber uptake in i.p. lavage cells, flow cytometry: B1a cells; type: in vivo, mouse; settings: 4 hours after i.p. injection
Method: (§1) Nanofiber Uptake and Evaluation. The cell types present and their propensity to uptake nanofibers in the i.p. space was tested by injecting mice i.p. with 100 μL of 2 mM TAMRA-labeled fluorescent nanofibers. 4 hours later, mice were euthanized and i.p. lavage was conducted via the injection of 2 mL of cold 1×PBS into the peritoneal cavity and massaging the abdomen for 30 seconds. The solution was then carefully extracted from the i.p. space and the cells were isolated followed by rinsing with ice cold flow buffer (2% heat-inactivated FBS in 1×PBS). The cells present were treated with mouse BD Fc Block (Clone: 2.4G2) (BD Biosciences, 553142) in flow buffer on ice for 30 min and then washed and stained with antibodies against the following markers: CD5-APC (Clone: 53-7.3) (BioLegend, 100626), F4/80-PerCP/Cy5.5 (Clone: BM8) (BioLegend, 123128), CD19-APC/Cy7 (Clone: 6D5) (BioLegend, 115530), CD11c-PE/Cy7 (Clone: N418) (BioLegend, 117318), and CD86-BV605 (Clone: GL1) (BD Biosciences, 2272591) in flow buffer for 30 min on ice. TAMRA-fluorescence as an indication of nanofiber uptake was measured on the PE channel. Cells were then washed in flow buffer and stained with DAPI. Flow cytometry was conducted on a BD FACSCanto II cytometer and the results were analyzed using FlowJo software.

macrophages (F4/80+) = experiment: Nanofiber uptake in i.p. lavage cells, flow cytometry: macrophages; type: in vivo, mouse; settings: 4 hours after i.p. injection of TAMRA-labeled nanofibers
Method: as §1

| Substance | effect of extra cysteines on anti-PC antibody responses (C57BL/6 mice) | zeta potential (surface charge) of nanofibers [1] | binding of anti-PC mAb to nanofibers [2] | CD86 activation marker on TAMRA+ B1a cells vs non-B1a cells (B1a cells (CD19+CD5+)) | macrophages staining positively for nanofibers (macrophages (F4/80+)) |
| --- | --- | --- | --- | --- | --- |
| CCCCSGSG-QQKFQFQFEQQ-NH2 (CCCCSGSGQQKFQFQFEQQ-NH2; cysteine pairing not given here) [Cys4-Q11] | did not significantly enhance or reduce the anti-PC antibody responses | – | – | – | – |
| C5H14NO4P-SGSG-QQKFQFQFEQQ-NH2 (C5H14NO4P-SGSGQQKFQFQFEQQ-NH2) [pa-PC-Q11, phosphoramidate-linked PC-Q11] | – | positively charged | not | – | – |
| AC-QQKFQFQFEQQ-NH2 (Ac-QQKFQFQFEQQ-NH2) [Q11] | – | – | not | not seen | almost all macrophages staining positively for nanofibers |
